According to article PMC7747997 (Plant Communications, 2019):

Legend:
Test in all cases: X-ray crystal structure, […] Å
Type in all cases: binding
SrUGT76G1 [1] = target: T1, SrUGT76G1 (Stevia rebaudiana, UniProt Q6VAB4); conditions: complex with UDP (crystals set up with UDP-xylose); acceptor pocket
T1 sequence (Q6VAB4 1-458): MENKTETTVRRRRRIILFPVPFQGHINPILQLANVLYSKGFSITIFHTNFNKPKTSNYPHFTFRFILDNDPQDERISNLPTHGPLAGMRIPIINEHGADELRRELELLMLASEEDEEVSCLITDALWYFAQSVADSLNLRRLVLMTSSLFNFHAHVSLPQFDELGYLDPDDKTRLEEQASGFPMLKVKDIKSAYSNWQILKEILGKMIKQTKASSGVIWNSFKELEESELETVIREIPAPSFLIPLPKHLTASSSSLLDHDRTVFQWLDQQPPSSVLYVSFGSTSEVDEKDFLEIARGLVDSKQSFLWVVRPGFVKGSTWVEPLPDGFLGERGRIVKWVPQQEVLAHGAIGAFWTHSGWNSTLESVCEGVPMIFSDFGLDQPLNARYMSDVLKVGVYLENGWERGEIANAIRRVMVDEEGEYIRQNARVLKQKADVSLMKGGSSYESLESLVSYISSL

SrUGT76G1 [2] = target: T1, SrUGT76G1; conditions: donor site; crystals set up with UDP-glucose
SrUGT76G1 [3] = target: T1, SrUGT76G1; conditions: donor site; crystals set up with UDP-xylose and Sb

Compound: C=C1C[C@@]23CC[C@H]4[C@@](C)(CCC[C@@]4(C)C(=O)O)[C@@H]2CC[C@]1(O[C@@H]1O[C@H](CO)[C@@H](O)[C@H](O)[C@H]1O)C3 [steviolmonoside]
- X-ray crystal structure, 2.4 Å (SrUGT76G1 [1]): UDP and steviolmonoside (UDP-Sm-SrUGT76G1)

Compound: O=c1ccn([C@@H]2O[C@H](COP(=O)(O)OP(=O)(O)O)[C@@H](O)[C@H]2O)c(=O)[nH]1 [UDP]
- X-ray crystal structure, 2.6 Å (SrUGT76G1 [2]): we crystallized SrUGT76G1 complexed with UDP (UDP-SrUGT76G1)

Compound: O=c1ccn([C@@H]2O[C@H](COP(=O)(O)OP(=O)(O)O[C@H]3OC[C@@H](O)[C@H](O)[C@H]3O)[C@@H](O)[C@H]2O)c(=O)[nH]1 [UDP-xylose]
- X-ray crystal structure, 2.5 Å (SrUGT76G1 [3]): UDP-xylose (UDPX-SrUGT76G1)
